In patent US20220226484A1, “THERAPEUTIC PEPTIDES” (COHBAR, INC., priority 2019, published 2022):
Non-standard residues stand in square brackets, D forms with d. Primed or numbered codes have the meaning given here. No end group written: not given here. PEG12′ = not defined here

Columns and labels:
[1] = system: DSS-induced colitis in female C57BL/6NTac mice; assay: DSS-induced colitis mouse model of inflammatory bowel disease; assay type: in vivo; details: 3% DSS 8 days; peptides 10 mg/kg/day intraperitoneal; CsA 80 mg/kg/day oral; AUC over 8 days
Description: The effect of the peptides on inflammatory disease can be assessed by monitoring fecal blood, stool consistency, and body weight loss in a DSS-induced colitis mouse model. Colitis was induced in female C57BL/6NTac mice (9-11 weeks old) by continuous ad libitum oral administration of dextran sodium sulfate (DSS) 3% in sterile drinking water for 8 days. Control (No DSS) mice received sterile water instead of DSS solution. Peptides were administered intraperitoneally once daily at 10 mg/kg/day for 8 days in combination with oral DSS. […] Daily assessments included body weight loss score, fecal blood score, stool consistency score, and composite disease activity index (DAI) score, based on the first three parameters combined. Scores recorded on each day over 8 days were used to calculate area under the curve (AUC) values for each endpoint in individual animals.

3T3-L1 Mouse Adipocytes [2] = assay: Insulin-dependent effect on free fatty acid levels in cultured mouse adipocytes; assay type: cell-based; details: for Free Fatty Acid Levels, MEAN % ISO, +Insulin: peptide 10 μM + insulin 0.25 nM, percent of isoproterenol (0.1 nM)+insulin (0.25 nM); for Free Fatty Acid Levels, MEAN % ISO, +Insulin / Free Fatty Acid Levels, MEAN % ISO, −Insulin: 3 hours; for Free Fatty Acid Levels, MEAN % ISO, −Insulin: peptide 10 μM alone, percent of isoproterenol (0.1 nM) treated control cells
Description: The effect of the peptides on fatty acid metabolism was assessed in the absence and presence of insulin using an assay of free fatty acid levels in cultured cells such as mouse adipocytes. Peptides were initially prepared as 10 mM stock in DMSO and used at a final concentration of 10 μM (0.1% DMSO). […] Insulin (0.25 nM) was used as a partial inhibitor and insulin (10 nM) was used as a potent inhibitor of isoproterenol stimulated fatty acid production. Mouse 3T3-L1 cells purchased from ZenBio (Research Triangle Park, N.C.) were seeded at 3,000 cells per well on 96-well plates in Pre-Adipocyte Medium (Zen-Bio) and grown to confluence at 37° C. in a humidified atmosphere of 5% CO2/95% air. Two days after confluence, cells were placed in Adipocyte Differentiation Medium (Zen-Bio) and cultured for three additional days at 37° C. in a humidified atmosphere of 5% CO2/95% air. The culture medium was then partially replaced with Adipocyte Maintenance Medium (Zen-Bio) and the cells maintained at 37° C. in a humidified atmosphere of 5% CO2/95% air with partial medium replacement every other day. At 12 day of differentiation, 96-well cultures were transferred to Adipocyte Maintenance Medium without insulin and placed at 37° C. in a humidified atmosphere of 5% CO2/95% air for two days. Following this incubation period, the medium was removed from 14 day differentiated cultures and replaced with Assay Buffer (Zen-Bio) containing peptides (10 μM), insulin (0.25 nM or 10 nM), isoproterenol (0.1 nM) as appropriate. […] isoproterenol was added to all wells except untreated controls. Insulin at 0.1 nM and 10 nM was added to control wells. Peptides (10 μM) in the absence or presence of insulin (0.25 nM) were added to test wells. Cells in the presence of compounds were placed at 37° C. in a humidified atmosphere of 5% CO2/95% air for 3 hours. At the end of the final 3 h incubation, conditioned assay buffer was removed from each well and place in a fresh 96-well plate for quantitation of free fatty acid content. Free fatty acid concentrations in the assay buffer samples were determined using a Free Fatty Acid Assay kit (Zen-Bio) according to the manufacturer's instructions using a Cytation 3 plate reader at 540 nm (BioTek, Winooski, VD. Absorbance values were corrected for untreated background and expressed as a percent of isoproterenol (0.1 nM) treated control cells for peptides alone or isoproterenol (0.1 nM)+insulin (0.25 nM) for peptides in presence of insulin (0.25 nM). Treatment with isoproterenol […] alone was used as the free fatty acid level stimulatory control. The relative standard deviation of the isoproterenol control was <10%. […] Free fatty acid levels for insulin (10 nM) treatment were <5% of the isoproterenol control value. Free fatty acid levels for insulin (0.25 nM) treatment were 60-80% of the isoproterenol control value.

H4IIE Rat Hepatoma Cells = assay: Insulin-dependent effect on glucose production by cultured rat liver cells; assay type: cell-based; details: for Glucose Levels, MEAN % Control, +Insulin: peptide 10 μM + insulin 800 pM, percent of insulin (800 pM); for Glucose Levels, MEAN % Control, +Insulin / Glucose Levels, MEAN % Control, −Insulin: 24 hour; for Glucose Levels, MEAN % Control, −Insulin: peptide 10 μM alone, percent of untreated control cells
Description: The effect of the peptides on glucose production was assessed in the absence and presence of insulin using an assay of glucose levels in cultured cells such as rat hepatocytes. Peptides were initially prepared as 10 mM stock in DMSO and used at a final concentration of 10 μM (0.1% DMSO). Insulin (800 pM) was used as a partial inhibitor of glucose production. H4-IIE cells purchased from ATCC (Manassas, Va.) were seeded at 100,000 cells/well in standard medium (DMEM/high glucose+10% FBS+1× Glutamax+antibiotics) on 96-well plates and allowed to adhere overnight at 37° C. in a humidified atmosphere of 5% CO2/95% air. Approximately 24 h after seeding, the medium was removed, cells rinsed with glucose free DMEM, and Glucose Production Medium (glucose free DMEM+2 mM sodium pyruvate+10 mM sodium lactate) was added. The cultures were placed at 37° C. in a humidified atmosphere of 5% CO2/95% air overnight. The next morning, the medium was removed and fresh Glucose Production Medium containing compounds was added. Insulin at 800 pM was added to control wells. Peptides (10 μM) in the absence or presence of insulin (800 pM) were added to test wells. Cells in the presence of compounds were placed at 37° C. in a humidified atmosphere of 5% CO2/95% air overnight. After 24 hour incubation, conditioned medium from each well was transferred to a fresh 96-well plate for quantitation of glucose content. Quantitation of glucose levels was determined using an Amplex Red Glucose Assay kit (Abacm; Cambridge, Mass.) according to the manufacturer's instructions using a Cytation 3 plate reader at 570 nm (BioTek, Winooski, Vt.). Absorbance values were expressed as a percent of untreated control cells (maximum glucose production) for peptide alone samples or insulin (800 pM) for peptides in the presence of insulin (800 pM. Glucose levels for insulin (800 pM) treatment were ˜80-90% of the untreated control values. The results are reported in Table 15.

3T3-L1 Mouse Adipocytes [3] = assay: Free fatty acid levels in cultured mouse adipocytes; assay type: cell-based; details: insulin 100 nM, 1 nM isoproterenol
Description: The effect of the peptides on fatty acid metabolism can be assessed using an assay of free fatty acid levels in cultured cells such as mouse adipocytes. Peptides were initially prepared as 10 mM stock in DMSO and used at a final concentration of 10 μM (0.1% DMSO). […] Mouse 3T3-L1 cells purchased from ZenBio were seeded at 3,000 cells per well in 96-well plates in Pre-adipocyte Medium (Zen-Bio) and grown to confluence at 37° C. in a humidified atmosphere of 5% CO2/95% air. Two days after confluence, cells were placed in Adipocyte Differentiation Medium (Zen-Bio) and cultured for three additional days at 37° C. in a humidified atmosphere of 5% CO2/95% air. The culture media was then replaced with Adipocyte Maintenance Medium (Zen-Bio) and the cells maintained for an additional 9-12 days at 37° C. in a humidified atmosphere of 5% CO2/95% air with partial medium replacement every other day. Following 12-15 days of differentiation, test peptides were added at a final concentration of 10 μM in 0.1% DMSO and incubated for 20-22 hours in Adipocyte Maintenance Medium at 37° C. in a humidified atmosphere of 5% CO2/95% air. After 20-22 hours, 1 nM isoproterenol was added to all wells except untreated controls and test peptides were replenished. Insulin at 100 nM was added to control wells. Cells were incubated for 3 hours in Assay Buffer (Zen-Bio) at 37° C. in a humidified atmosphere of 5% CO2/95% air. Free fatty acid concentrations in the media were determined using a Free Fatty Acid Assay kit (Zen-Bio) according to the manufacturer's instructions using a Cytation 3 plate reader at 540 nm (BioTek, Winooski, Vt.). Absorbance values were corrected for untreated background and expressed relative to isoproterenol treated cells. Treatment with isoproterenol (1 nM) alone was used as the free fatty acid level stimulatory control. The relative standard deviation of the isoproterenol control was <10%. […] Free fatty acid levels for insulin (100 nM) treatment were <5% of the isoproterenol control value.
The effect of the peptides on fatty acid metabolism was assessed using an assay of free fatty acid levels in cultured cells such as mouse adipocytes. Peptides were initially prepared as 10 mM stock in DMSO and used at a final concentration of 10 μM (0.1% DMSO). […] Mouse 3T3-L1 cells purchased from ZenBio were seeded at 3,000 cells per well in 96-well plates in Pre-adipocyte Medium (Zen-Bio) and grown to confluence at 37° C. in a humidified atmosphere of 5% CO2/95% air. Two days after confluence, cells were placed in Adipocyte Differentiation Medium (Zen-Bio) and cultured for three additional days at 37° C. in a humidified atmosphere of 5% CO2/95% air. The culture media was then replaced with Adipocyte Maintenance Medium (Zen-Bio) and the cells maintained for an additional 9-12 days at 37° C. in a humidified atmosphere of 5% CO2/95% air with partial medium replacement every other day. Following 12-15 days of differentiation, test peptides were added at a final concentration of 10 μM in 0.1% DMSO and incubated for 20-22 hours in Adipocyte Maintenance Medium at 37° C. in a humidified atmosphere of 5% CO2/95% air. After 20-22 hours, 1 nM isoproterenol was added to all wells except untreated controls and test peptides were replenished. Insulin at 100 nM was added to control wells. Cells were incubated for 3 hours in Assay Buffer (Zen-Bio) at 37° C. in a humidified atmosphere of 5% CO2/95% air. Free fatty acid concentrations in the media were determined using a Free Fatty Acid Assay kit (Zen-Bio) according to the manufacturer's instructions using a Cytation 3 plate reader at 540 nm (BioTek, Winooski, Vt.). Absorbance values were corrected for untreated background and expressed relative to isoproterenol treated cells. Treatment with isoproterenol (1 nM) alone was used as the free fatty acid level stimulatory control. The relative standard deviation of the isoproterenol control was <10%. […]

Substance	Free Fatty Acid Levels, MEAN % ISO, +Insulin (3T3-L1 Mouse Adipocytes [2])	Free Fatty Acid Levels, MEAN % ISO, −Insulin (3T3-L1 Mouse Adipocytes [2])	Glucose Levels, MEAN % Control, +Insulin (H4IIE Rat Hepatoma Cells)	Glucose Levels, MEAN % Control, −Insulin (H4IIE Rat Hepatoma Cells)	further results
RVIRACLGVGLLGDL(dA)GK{PEG12} [SEQ ID NO: 29] (RVIRACLGVGLLGDL[dA]GK(PEG12′))					Mean (SEM) Body Weight Loss Score AUC [1]: 2.10 (0.76); Mean (SEM) Composite Disease Activity Index (DAI) Score AUC [1]: 19.8 (1.99); Mean (SEM) Fecal Blood Score AUC [1]: 12.8 (1.04); Mean (SEM) Stool Consistency Score AUC [1]: 5.05 (0.78)
RVIRACLGVGLLGDL(dA)GK{PEG12} [SEQ ID NO: 30] (RVIRACLGVGLLGDL[dA]GK(PEG12′); not fully specified; printed as RVIRACLGVGLLGDL(dA)GK{PEG12}) [possibly the dimer of this chain]					Mean (SEM) Body Weight Loss Score AUC [1]: 0.95 (0.69); Mean (SEM) Composite Disease Activity Index (DAI) Score AUC [1]: 14.9 (0.86); Mean (SEM) Fecal Blood Score AUC [1]: 9.30 (0.44); Mean (SEM) Stool Consistency Score AUC [1]: 4.65 (0.48)
RVIRMCLNNGLNGEL(dA)G (RVIRMCLNNGLNGEL[dA]G) [SEQ ID NO: 22]	25.3%	93.6%	0.5%	-0.4%	
RVIRMCLNVGLEGEL(dA) (RVIRMCLNVGLEGEL[dA]) [SEQ ID NO: 19]	24.7%	67.1%	3.7%	12.5%	
RVIRMCLNVGLNGE [SEQ ID NO: 21]	40.0%	102%	78.2%	102%	
insulin: highly potent positive control for decreasing free fatty acid levels; partial inhibitor of glucose production					Free fatty acid levels, % of the isoproterenol control value (3T3-L1 Mouse Adipocytes [3]): < 5%; Free fatty acid levels, % of the isoproterenol control value (3T3-L1 Mouse Adipocytes [2]; insulin 0.25 nM): 60-80%; Free fatty acid levels, % of the isoproterenol control value (3T3-L1 Mouse Adipocytes [2]; insulin 10 nM): < 5%; Glucose levels, % of the untreated control values (H4IIE Rat Hepatoma Cells; insulin 800 pM): 80-90%
{PEG12}KRVIRMCLNVGLLGEL(dA)E ([PEG12′]KRVIRMCLNVGLLGEL[dA]E) [SEQ ID NO: 18]	93.6%	107%	95.4%	101%	
